What is called EC50 is the concentration needed to bring the measured effect to its halfway point.

Each structure is given as a SMILES string.

The values that follow come from BindingDB's records for doi:10.1021/jm401695d (Emory University, 2014).

The experiment deals with Glutamate NMDA receptor; Grin1/Grin2c (Rattus norvegicus, UniProt Q00961+P35439). The experiment in a line: Potentiation of rat recombinant GluN1/GluN2C expressed in Xenopus laevis oocytes assessed as increase in glutamate/glycine-induced current response by two-electrode voltage clamp technique relative to control. A general note: Two-electrode voltage clamp is typically applied to oocytes expressing channels or transporters.
Glutamate NMDA receptor; Grin1/Grin2c, sequence (Q00961 whole entry, other chains not shown): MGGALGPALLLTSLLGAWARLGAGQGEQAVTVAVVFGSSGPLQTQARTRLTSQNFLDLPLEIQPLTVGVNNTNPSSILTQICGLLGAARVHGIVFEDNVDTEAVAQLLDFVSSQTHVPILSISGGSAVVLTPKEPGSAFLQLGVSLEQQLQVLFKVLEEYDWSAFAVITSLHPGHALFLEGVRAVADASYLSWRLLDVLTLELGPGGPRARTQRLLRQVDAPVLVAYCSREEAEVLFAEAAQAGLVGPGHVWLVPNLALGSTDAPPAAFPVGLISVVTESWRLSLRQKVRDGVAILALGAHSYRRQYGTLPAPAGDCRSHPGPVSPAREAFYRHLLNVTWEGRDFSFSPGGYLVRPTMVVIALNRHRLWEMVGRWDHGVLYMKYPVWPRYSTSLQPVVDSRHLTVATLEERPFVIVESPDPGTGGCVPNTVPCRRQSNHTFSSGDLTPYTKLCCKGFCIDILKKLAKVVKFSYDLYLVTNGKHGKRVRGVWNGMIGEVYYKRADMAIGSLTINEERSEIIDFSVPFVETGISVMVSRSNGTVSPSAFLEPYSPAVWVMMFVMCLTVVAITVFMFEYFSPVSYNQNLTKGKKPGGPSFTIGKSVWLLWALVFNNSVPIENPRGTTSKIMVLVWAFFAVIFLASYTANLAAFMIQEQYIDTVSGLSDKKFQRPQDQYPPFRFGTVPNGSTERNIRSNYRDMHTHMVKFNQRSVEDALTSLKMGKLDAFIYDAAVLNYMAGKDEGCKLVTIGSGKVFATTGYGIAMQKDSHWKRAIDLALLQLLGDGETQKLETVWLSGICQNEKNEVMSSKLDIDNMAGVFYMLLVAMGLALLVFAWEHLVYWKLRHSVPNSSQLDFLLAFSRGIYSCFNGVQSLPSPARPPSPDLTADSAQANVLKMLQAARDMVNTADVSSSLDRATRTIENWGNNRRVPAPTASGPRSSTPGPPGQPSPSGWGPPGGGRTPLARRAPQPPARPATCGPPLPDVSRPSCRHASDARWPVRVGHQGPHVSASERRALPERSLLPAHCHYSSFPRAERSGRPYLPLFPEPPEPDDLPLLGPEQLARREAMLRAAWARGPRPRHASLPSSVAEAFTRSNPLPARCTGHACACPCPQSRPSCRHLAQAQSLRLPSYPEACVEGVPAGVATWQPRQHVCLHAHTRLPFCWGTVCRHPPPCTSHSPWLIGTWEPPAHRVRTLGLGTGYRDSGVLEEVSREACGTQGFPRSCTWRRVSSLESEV

On to `COC(=O)c1ccc(C2C(C(C)=O)=C(O)C(=O)N2CCc2c(C)[nH]c3ccccc23)cc1` (stereo unspecified), for which the EC50 is 16 µM.
